Test results published in publication PMC10447287, “Optimisation of Pharmaceutical Cocrystal Dissolution Performance through a Synergistic Precipitation Inhibition” (Pharmaceutical Research, 2023).

Key:
[1] = FFA-NIC cocrystal solubility and phase solubility diagrams (PSD); type: physicochemical; conditions: for FFA concentration at eutectic point / Ksp / SAB: 37°C
Protocol: For a 1:1 AB cocrystal without consideration of ionization of each component, its molar solubility SAB is calculated as [21]1 SAB=Ksp=CACB where Ksp is the solubility product of the AB cocrystal, and CA and CB (μmol/mL) are the molar concentrations of A and B where the solution is in equilibrium with the solid residues including cocrystal solids. When the solution is in equilibrium with both the drug and cocrystal solids, it is called the eutectic point where the component concentrations in solution are designated as CA_eut and CB_eut .
In order to determine the FFA-NIC cocrystal solubility, the physical mixtures of the FFA I and NIC solids and a constant 10 mL of the medium (i.e., DDW or PBS pH 4.5 in the absence and presence of a predissolved polymer, i.e., 0.2 mg/mL PVP-VA, 1 mg/mL PEG or 0.2 mg/mL SLP, or a combination, i.e., 0.2 mg/mL PVP-VA + 1 mg/mL PEG, 0.2 mg/mL PVP-VA + 0.2 mg/mL SLP), representing 10% w/w and 90% w/w of the total weight of a sample, were used. More than eight different ratios of the FFA I and NIC solids in the physical mixtures (Table S1 in the supporting materials) were prepared and then each of them was transferred into a 20 mL glass vial containing a magnetic stirrer (3 × 20 mm) with 10 mL of the solution prepared above. The samples were placed in the Polar Bear Plus Crystal (Cambridge Reactor Design Ltd, UK) and kept at 37 ± 0.5°C for 24 h. After that, the supernatant of each of the samples was separated from excess solids by centrifugation at 13,000 RPM for 1 min in an MSE Micro Centaur. HPLC was used to determine the concentrations of FFA and NIC. Solid residues obtained from the experiments were dried at room temperature and analysed by PXRD. If the FFA-NIC cocrystal solids were found in the solid residues of a sample ( i ), the molar concentrations of FFA ( CFFA,iexp ) and NIC ( CNIC,iexp ) (μmol/mL) obtained were used to determine the solubility product Ksp,iexp of FFA-NIC cocrystal by2 Ksp,iexp=CFFA,iexp×CNIC,iexp
The optimal solubility product Kspoptimal of FFA-NIC cocrystal is obtained by minimizing the sum square error (SSE) of the optimal value with each of the individual experimental values KSP,iexp .3 Kspoptimal=min∑i=1n(Kspoptimal-ksp,iexp)^2 where n is the total number of vials having the cocrystal solids in the residues.
In this work, the optimal value of Kspopitmal was obtained using the inbuilt “fminbnd” function in MATLAB. If both the FFA-NIC cocrystal and FFA I solids were found in the solid residues of a sample, the measured concentrations of FFA ( CFFAexp ) and NIC ( CNICexp ) were the transition concentrations at the eutectic point.

[2] = Dissolution tests of powder mixtures of FFA-NIC cocrystal with polymers in PBS pH 4.5 (non-sink); type: physicochemical; conditions: for incongruent indicator k(t) (molar FFA/NIC in solution): PBS pH 4.5, neat cocrystal; for FFA DPP: reference neat cocrystal in PBS pH 4.5
Protocol: Similarly, in vitro dissolution tests of the powder mixtures of 71.7 mg of the FFA-NIC cocrystals with an individual polymer or a combination in PBS pH 4.5 or PBS pH 6.8 were conducted in triplicate. […], 400 mg of PEG, […], corresponding to their predissolved concentrations used in Section "Dissolution Tests of FFA, the Neat FFA-TP Cocrystal or FFA-NIC Cocrystal Powders in DDW in the Absence and Presence of a Predissolved Polymer or a Combination".
The solid residues obtained from the experiments in PBS pH 4.5 were dried at room temperature and analysed by PXRD.
DPP was used to evaluate the dissolution profile of the test powders in comparison to a reference system, which is defined as,4 DPP=AUCC(t)-AUCCR(t)/AUCCR(t)×100% where AUCC(t) is the area under the curve (AUC) of a dissolution profile C(t) , indicating the amount of drug dissolved is maintained over the period of the dissolution time from 0 to t, and AUCCR(t) is the AUC of a reference dissolution profile CR(t) .
The solids were scanned by D2 phaser diffractometer (Bruker U.K. Limited, Coventry, UK) with […] radiation operating at voltage of 30 kV and current of 10 mA. The scanning angle ranged from 2°-40° of 2θ. The scanning time per step was 0.4 s. The scan step size was 0.02° of 2θ.

[3] = DDW with PEG (1 mg/mL) + PVP-VA (0.2 mg/mL)
[4] = DDW with SLP (0.2 mg/mL) + PVP-VA (0.2 mg/mL)
[5] = PBS pH 4.5 with PEG (1 mg/mL) + PVP-VA (0.2 mg/mL)
[6] = PBS pH 4.5 with PVP-VA (0.2 mg/mL)
[7] = PBS pH 4.5 with SLP (0.2 mg/mL)
[8] = PBS pH 4.5 with SLP (0.2 mg/mL) + PVP-VA (0.2 mg/mL)

Compound: NC(=O)c1cccnc1.O=C(O)c1ccccc1Nc1cccc(C(F)(F)F)c1 [FFA-NIC cocrystal]
- Ratio of FFA concentration at eutectic point with parent drug ([1]; DDW with PEG (1 mg/mL)): 4.47
- Ratio of FFA concentration at eutectic point with parent drug [1, 3]: 7.27
- Ratio of cocrystal solubility with parent drug [1, 3]: 4382.27
- FFA concentration at eutectic point [1, 3]: 0.26 µmol/mL
- Ksp [1, 3]: 156.76 μmol^2/mL^2
- SAB [1, 3]: 12.52 µmol/mL
- FFA concentration at eutectic point ([1]; DDW with PEG (1 mg/mL)): 0.16 µmol/mL
- Ksp ([1]; DDW with PEG (1 mg/mL)): 136.09 μmol^2/mL^2
- SAB ([1]; DDW with PEG (1 mg/mL)): 11.67 µmol/mL
- Ratio of FFA concentration at eutectic point with parent drug ([1]; DDW with PVP-VA (0.2 mg/mL)): 23.20
- Ratio of cocrystal solubility with parent drug ([1]; DDW with PVP-VA (0.2 mg/mL)): 4805.23
- FFA concentration at eutectic point ([1]; DDW with PVP-VA (0.2 mg/mL)): 0.83 µmol/mL
- Ksp ([1]; DDW with PVP-VA (0.2 mg/mL)): 171.89 μmol^2/mL^2
- SAB ([1]; DDW with PVP-VA (0.2 mg/mL)): 13.11 µmol/mL
- Ratio of FFA concentration at eutectic point with parent drug ([1]; DDW with SLP (0.2 mg/mL)): 4.47
- Ratio of cocrystal solubility with parent drug ([1]; DDW with SLP (0.2 mg/mL)): 3218.49
- Ratio of FFA concentration at eutectic point with parent drug [1, 4]: 31.03
- Ratio of cocrystal solubility with parent drug [1, 4]: 6264.77
- FFA concentration at eutectic point [1, 4]: 1.11 µmol/mL
- Ksp [1, 4]: 224.10 μmol^2/mL^2
- SAB [1, 4]: 14.97 µmol/mL
- FFA concentration at eutectic point ([1]; DDW with SLP (0.2 mg/mL)): 0.16 µmol/mL
- Ratio of FFA concentration at eutectic point with parent drug ([1]; DDW, pure solution): 6.71
- Ratio of cocrystal solubility with parent drug ([1]; DDW, pure solution): 2649.04
- FFA concentration at eutectic point ([1]; DDW, pure solution): 0.24 µmol/mL
- Ksp ([1]; DDW, pure solution): 94.76 μmol^2/mL^2
- SAB ([1]; DDW, pure solution): 9.73 µmol/mL
- Ratio of FFA concentration at eutectic point with parent drug ([1]; PBS pH 4.5, pure solution): 2.46
- Ratio of cocrystal solubility with parent drug ([1]; PBS pH 4.5, pure solution): 1535.91
- FFA concentration at eutectic point ([1]; PBS pH 4.5, pure solution): 0.16 µmol/mL
- Ksp ([1]; PBS pH 4.5, pure solution): 99.78 μmol^2/mL^2
- SAB ([1]; PBS pH 4.5, pure solution): 9.99 µmol/mL
- Ratio of FFA concentration at eutectic point with parent drug ([1]; PBS pH 4.5 with PEG (1 mg/mL)): 4.93
- Ratio of cocrystal solubility with parent drug ([1]; PBS pH 4.5 with PEG (1 mg/mL)): 1601.02
- Ratio of FFA concentration at eutectic point with parent drug [1, 5]: 10.16
- Ratio of cocrystal solubility with parent drug [1, 5]: 2171.41
- FFA concentration at eutectic point [1, 5]: 0.66 µmol/mL
- Ksp [1, 5]: 141.26 μmol^2/mL^2
- SAB [1, 5]: 11.89 µmol/mL
- FFA concentration at eutectic point ([1]; PBS pH 4.5 with PEG (1 mg/mL)): 0.32 µmol/mL
- Ksp ([1]; PBS pH 4.5 with PEG (1 mg/mL)): 104.01 μmol^2/mL^2
- SAB ([1]; PBS pH 4.5 with PEG (1 mg/mL)): 10.20 µmol/mL
- Ratio of FFA concentration at eutectic point with parent drug [1, 6]: 6.93
- Ratio of cocrystal solubility with parent drug [1, 6]: 2040.80
- FFA concentration at eutectic point [1, 6]: 0.45 µmol/mL
- Ksp [1, 6]: 132.58 μmol^2/mL^2
- SAB [1, 6]: 11.51 µmol/mL
- Ratio of FFA concentration at eutectic point with parent drug [1, 7]: 2.46
- Ratio of cocrystal solubility with parent drug [1, 7]: 1772.19
- Ratio of FFA concentration at eutectic point with parent drug [1, 8]: 10.16
- Ratio of cocrystal solubility with parent drug [1, 8]: 2443.18
- FFA concentration at eutectic point [1, 8]: 0.66 µmol/mL
- Ksp [1, 8]: 158.72 μmol^2/mL^2
- SAB [1, 8]: 12.60 µmol/mL
- FFA concentration at eutectic point [1, 7]: 0.16 µmol/mL
- potential increase in the FFA solubility based on FFA concentration at eutectic point ([1]; in DDW): 30 fold
- potential increase in the FFA solubility based on FFA concentration at eutectic point ([1]; in PBS pH 4.5): tenfold
- increase of the FFA solubility achieved by cocrystal (by Eq. 1 cocrystal solubility) ([1]; in some cases, Table III): > 1000 fold
- solid residues after dissolution tests (PXRD) ([2]; PBS pH 4.5, groups SLP (0.1 mg/mL) + PVP-VA (0.4 mg/mL) and SLP (0.2 mg/mL) + PVP-VA (0.8 mg/mL)): FFA-NIC cocrystals were also found in the solid residues
- incongruent indicator k(t) (molar FFA/NIC in solution) ([2]; at 5 min): 0.03
- incongruent indicator k(t) (molar FFA/NIC in solution) ([2]; at 60 min): 0.07
- FFA DPP ([2]; PBS pH 4.5, powder mixture with PEG (1 mg/mL) + PVP-VA (0.2 mg/mL)): 36%
- FFA DPP ([2]; PBS pH 4.5, powder mixture with PEG (1 mg/mL)): 11%
- FFA concentration at the end of the test ([2]; PBS pH 4.5, powder mixture with PVP-VA): 17.38 µg/mL
- FFA DPP ([2]; PBS pH 4.5, powder mixture with PVP-VA (0.2 mg/mL)): 92%
- maximum supersaturated FFA concentration ([2]; PBS pH 4.5, powder mixture with PVP-VA, at 60 min): 19.65 µg/mL
- FFA DPP ([2]; PBS pH 4.5, powder mixture with SLP (0.1 mg/mL) + PVP-VA (0.4 mg/mL)): 150%
- FFA DPP ([2]; PBS pH 4.5, powder mixture with SLP (0.2 mg/mL) + PVP-VA (0.2 mg/mL)): 159%
- FFA DPP ([2]; PBS pH 4.5, powder mixture with SLP (0.2 mg/mL) + PVP-VA (0.4 mg/mL)): 179%
- FFA DPP ([2]; PBS pH 4.5, powder mixture with SLP (0.2 mg/mL) + PVP-VA (0.8 mg/mL)): 204%
- FFA DPP ([2]; PBS pH 4.5, powder mixture with SLP (0.2 mg/mL)): 2%
- solid residues after dissolution tests (PXRD) ([2]; all dissolution tests in PBS pH 4.5): FFA III solids were crystallised
